According to patent US10882826B2, “Quinolinone or quinazolinone comprising antibiofilm compositions, compounds and methods and uses relating thereto” (University College Cork—National University of Ireland, priority 2015, dated 2021):

How the values were obtained:
[1] = test system: pqsA-lacZ promoter fusion; test: Promoter fusion based expression analysis (pqsA-lacZ, Miller units); type: cell-based, P. aeruginosa; details: PAO1 pqsA-pqsA-lacZ strain, 100 μM, overnight; methanol control 12287
Protocol: P. aeruginosa strains, PAO1 and pqsA mutant, containing the chromosomally inserted pqsA-lacZ promoter fusion on plasmid pUC18-mini-Tn7, were sub-cultured from glycerol stocks onto LB agar plates, supplemented with Carbenicillin (200 μg/ml) and X-gal (40 μg/ml), and incubated at 37° C. overnight. Single colonies were inoculated into LB broth (20 ml), supplemented with Carbenicillin (200 μg/ml), and incubated at 37° C., shaking at 180 rpm overnight. For subsequent experiments, the OD600 nm was recorded and a starting OD600 nm of 0.02 was inoculated into fresh LB broth, supplemented with Carbenicillin (200 μg/ml) and incubated at 37° C., shaking at 180 rpm.
Promoter fusion analyses were performed in a 96-well format. Briefly, overnight cultures of wild-type PAO1 pqsA-lacZ (pLP0996) and mutant strain PAO1 pqsA^− pqsA-LacZ were diluted to OD600 nm=0.02 in LB. Test compounds at 100 μM final concentration were added, mixed, aliquoted into 96 well plates and incubated overnight at 37° C. with shaking. The next day, OD600 nm values were recorded in a plate reader. Aliquots of cells (0.02 ml) were permeabilised [100 mM dibasic sodium phosphate (Na2HPO4), 20 mM KCl, 2 mM MgSO4, 0.8 mg/mL CTAB (hexadecyltrimethylammonium bromide), 0.4 mg/mL sodium deoxycholate, 5.4 μL/mL beta-mercaptoethanol] and added to substrate solution [60 mM Na2HPO4, 40 mM NaH2PO4, 1 mg/mL o-nitrophenyl-β-D-Galactoside (ONPG), 2.7 μL/mL β-mercaptoethanol]. The kinetics of colour development was monitored and the reactions were stopped using 1M NaCO3. OD420 nm were recorded as above. Miller units were calculated using the following equation; 1000×[OD420 nm/(OD600 nm)×0.02 ml×reaction time (mins)].
The phenazine production levels and Miller units in the PAO1 pqsA-pqsA-lacZ strain are detailed in table 5.
The virulence of compounds B2, C13 and C15 towards P. aeruginosa was assessed using an analogous method.

[2] = test system: mammalian cells; test: Cytotoxicity towards mammalian cells (summary statement); type: cell-based
Protocol: (§1) Lactate dehydrogenase (LDH) release from IB3 lung epithelial cells was assayed as a measure of cytotoxicity using an LDH colorimetric kit (Roche) according to manufacturers' instructions. Briefly, IB3-1 cells were seeded onto 96 well plates and treated with methanol (control) and test compounds (100 μM). Following 16 hr incubation at 37° C. and 5% CO2, supernatants were removed and added to catalyst reaction mixture in a fresh plate and further incubated at 37° C. and 5% CO2 for 30 mins to allow for colour development. After this period, the plate was analysed on an ELISA plate reader at OD490 nm. Cytotoxicity was expressed as a percentage of cells treated with 0.1% (v/v) Triton (100% cytotoxicity). The results are detailed in table 3:
The above experiments were repeated, testing some compounds against further cell lines (A549, DU145 and HeLa).

[3] = test system: Pseudomonus aeruginosa; test: Virulence of Pseudomonas aeruginosa (summary statement); type: cell-based; details: unlike HHQ and PQS
Protocol: The virulence of compounds B1, B2, C2, C3, C4, C5, C6, C8 and C11 towards P. aeruginosa was assessed using the following method:
P. aeruginosa strains were cultured as described above for 24 hr, with the addition of test compounds (10 μM). Cultures were centrifuged at 4000 rpm for 10 minutes and the cell free supernatant (5 ml) removed. Chloroform (3 ml) was added, and mixed by vortex. After centrifugation at 4000 rpm for 5 mins, the lower aqueous phase was transferred to 0.2 M HCl (2 ml). Samples were mixed by vortex and centrifuged at 4000 rpm for 5 mins to separate the phases. An aliquot of the top phase (1 ml) was removed and spectrophotmetrically analysed at OD570 nm. Phenazine production was calculated using the following formula: OD570 nm×2×17.072 and the units expressed in μg/ml. […]

[4] = test system: IB3 lung epithelial cells; test: LDH release cytotoxicity, IB3-1 cells; type: cell-based; details: 100 μM, 16 hr, percentage of 0.1% Triton (100% cytotoxicity), MeOH 3.844
Protocol: as §1, with “cytotoxicity).” for “cytotoxicity). The results are detailed in table 3:”

SMILES	Miller Units, Mean [1] [Miller Units]	cytotoxicity towards mammalian cells (in words) [2]	effect on virulence of Pseudomonus aeruginosa (in words) [3]	% Cytotoxicity, Mean (LDH release) [4] [%]
CCCCCCCc1nc2ccccc2c(=O)n1N [Compound C2]	16027	reduced cytotoxicity	do not increase the virulence	28.94
CCCCCCCc1cc(=O)c2cc(Cl)ccc2[nH]1 [Compound C4]	35489	reduced cytotoxicity	do not increase the virulence	15.46
CCCCCCCc1cc(=O)c2cccc(Cl)c2[nH]1 [Compound C5]	11940	reduced cytotoxicity	do not increase the virulence	31.04
